Measured values reported in patent US8044069B2, “Compounds as calcium channel blockers” (Abbott Laboratories, priority 2008, dated 2011).

Target: human Cav2.2 (Homo sapiens, UniProt Q00975)
Test: Assessment of calcium channel activity using FLIPR (Ca2+ influx in IMR32 cells)
Format: cell-based
Settings: IMR32 cells endogenously expressing human Cav2.2; 60 minute pre-incubation; 2 μM nifedipine; depolarized with 80 mM KCl, 5 mM CaCl2
Procedure, shortened: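 FLIPR measured Ca2+ influx triggered by 80 mM KCl depolarization together with a step to 5 mM external CaCl2. Percent inhibition relative to uninhibited activity was fitted sigmoidally for IC50.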

Chain of human Cav2.2 (Q00975 whole entry): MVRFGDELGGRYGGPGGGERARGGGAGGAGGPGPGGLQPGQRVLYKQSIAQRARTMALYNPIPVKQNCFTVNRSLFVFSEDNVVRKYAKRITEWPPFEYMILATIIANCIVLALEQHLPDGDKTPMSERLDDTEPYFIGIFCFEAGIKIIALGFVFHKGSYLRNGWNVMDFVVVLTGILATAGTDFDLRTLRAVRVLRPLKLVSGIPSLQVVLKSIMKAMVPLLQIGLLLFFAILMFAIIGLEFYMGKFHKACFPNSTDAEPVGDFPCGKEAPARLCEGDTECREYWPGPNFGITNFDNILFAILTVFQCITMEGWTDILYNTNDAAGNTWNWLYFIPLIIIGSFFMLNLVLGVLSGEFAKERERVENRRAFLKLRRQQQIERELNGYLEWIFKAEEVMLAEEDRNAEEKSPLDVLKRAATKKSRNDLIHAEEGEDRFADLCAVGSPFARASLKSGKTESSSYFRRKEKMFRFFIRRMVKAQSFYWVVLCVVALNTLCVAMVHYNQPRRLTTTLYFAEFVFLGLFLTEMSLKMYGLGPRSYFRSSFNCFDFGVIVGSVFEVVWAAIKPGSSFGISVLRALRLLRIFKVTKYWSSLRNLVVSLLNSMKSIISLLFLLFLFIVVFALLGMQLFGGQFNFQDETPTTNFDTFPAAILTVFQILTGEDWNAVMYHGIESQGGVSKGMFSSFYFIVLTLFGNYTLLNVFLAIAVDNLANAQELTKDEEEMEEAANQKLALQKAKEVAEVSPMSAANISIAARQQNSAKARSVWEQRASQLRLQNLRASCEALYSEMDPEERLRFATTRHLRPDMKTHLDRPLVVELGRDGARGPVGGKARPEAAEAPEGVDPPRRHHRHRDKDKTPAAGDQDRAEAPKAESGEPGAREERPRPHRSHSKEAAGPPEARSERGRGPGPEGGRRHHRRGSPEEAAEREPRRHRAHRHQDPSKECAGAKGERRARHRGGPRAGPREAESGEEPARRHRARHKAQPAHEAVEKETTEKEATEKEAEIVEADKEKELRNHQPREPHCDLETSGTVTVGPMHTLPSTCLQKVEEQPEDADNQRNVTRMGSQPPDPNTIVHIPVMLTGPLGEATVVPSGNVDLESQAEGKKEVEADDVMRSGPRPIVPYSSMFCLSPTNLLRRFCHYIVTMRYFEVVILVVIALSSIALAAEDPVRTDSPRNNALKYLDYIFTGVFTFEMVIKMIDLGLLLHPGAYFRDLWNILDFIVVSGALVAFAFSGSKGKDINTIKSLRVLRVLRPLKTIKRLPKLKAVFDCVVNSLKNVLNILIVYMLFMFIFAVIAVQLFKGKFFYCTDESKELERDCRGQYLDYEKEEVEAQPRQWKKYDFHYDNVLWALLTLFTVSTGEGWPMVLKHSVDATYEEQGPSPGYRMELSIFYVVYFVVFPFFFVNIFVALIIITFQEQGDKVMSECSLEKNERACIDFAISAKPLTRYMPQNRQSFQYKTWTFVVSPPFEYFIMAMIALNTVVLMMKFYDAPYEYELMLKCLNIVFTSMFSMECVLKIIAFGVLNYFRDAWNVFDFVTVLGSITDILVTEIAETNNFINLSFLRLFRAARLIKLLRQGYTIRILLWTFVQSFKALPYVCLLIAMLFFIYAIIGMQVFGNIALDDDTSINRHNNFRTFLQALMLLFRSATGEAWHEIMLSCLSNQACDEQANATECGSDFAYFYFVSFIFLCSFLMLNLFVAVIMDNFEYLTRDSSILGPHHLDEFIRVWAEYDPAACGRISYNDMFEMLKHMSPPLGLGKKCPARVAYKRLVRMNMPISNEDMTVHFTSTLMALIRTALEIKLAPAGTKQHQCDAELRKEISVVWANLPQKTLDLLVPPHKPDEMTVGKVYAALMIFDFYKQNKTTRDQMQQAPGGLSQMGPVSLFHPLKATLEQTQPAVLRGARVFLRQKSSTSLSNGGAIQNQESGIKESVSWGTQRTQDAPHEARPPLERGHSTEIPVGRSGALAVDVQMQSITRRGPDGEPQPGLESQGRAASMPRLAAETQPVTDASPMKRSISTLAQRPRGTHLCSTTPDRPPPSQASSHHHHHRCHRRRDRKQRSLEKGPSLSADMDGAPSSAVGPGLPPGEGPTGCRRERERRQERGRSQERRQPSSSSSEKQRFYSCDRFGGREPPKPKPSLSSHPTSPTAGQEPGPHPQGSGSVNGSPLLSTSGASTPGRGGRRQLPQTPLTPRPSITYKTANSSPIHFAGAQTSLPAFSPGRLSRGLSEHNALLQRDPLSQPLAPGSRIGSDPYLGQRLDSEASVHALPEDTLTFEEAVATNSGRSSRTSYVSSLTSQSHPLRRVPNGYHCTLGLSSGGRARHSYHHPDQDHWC
Chain of human Cav2.2 (P54289 25-951 partner limits assumed): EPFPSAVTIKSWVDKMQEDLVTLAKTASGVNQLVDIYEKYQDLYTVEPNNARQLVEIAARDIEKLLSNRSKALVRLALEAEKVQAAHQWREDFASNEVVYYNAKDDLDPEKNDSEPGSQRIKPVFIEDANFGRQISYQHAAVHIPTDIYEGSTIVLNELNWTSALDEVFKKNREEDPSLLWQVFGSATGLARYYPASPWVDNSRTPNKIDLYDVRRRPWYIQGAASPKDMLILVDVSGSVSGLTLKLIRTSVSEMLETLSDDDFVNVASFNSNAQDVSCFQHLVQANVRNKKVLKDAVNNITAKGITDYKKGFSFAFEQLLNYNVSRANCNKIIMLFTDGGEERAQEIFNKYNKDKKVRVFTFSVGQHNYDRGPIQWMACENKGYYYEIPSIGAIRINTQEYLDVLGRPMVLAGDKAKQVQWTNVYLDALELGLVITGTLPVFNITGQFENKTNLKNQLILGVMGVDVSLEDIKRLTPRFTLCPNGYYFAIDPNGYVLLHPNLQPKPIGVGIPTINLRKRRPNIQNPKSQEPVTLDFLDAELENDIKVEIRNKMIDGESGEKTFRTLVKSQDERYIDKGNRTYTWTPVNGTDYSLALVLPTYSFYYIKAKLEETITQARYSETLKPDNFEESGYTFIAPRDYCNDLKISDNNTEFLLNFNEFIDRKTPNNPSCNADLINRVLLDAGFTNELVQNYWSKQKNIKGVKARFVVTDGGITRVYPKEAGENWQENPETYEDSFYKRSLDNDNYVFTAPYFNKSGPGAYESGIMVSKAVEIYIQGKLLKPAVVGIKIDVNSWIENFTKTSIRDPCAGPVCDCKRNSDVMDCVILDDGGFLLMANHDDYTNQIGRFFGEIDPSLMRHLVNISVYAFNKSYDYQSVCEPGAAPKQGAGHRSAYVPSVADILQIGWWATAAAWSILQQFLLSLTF
Chain of human Cav2.2 (P54289 952-1103 partner limits assumed): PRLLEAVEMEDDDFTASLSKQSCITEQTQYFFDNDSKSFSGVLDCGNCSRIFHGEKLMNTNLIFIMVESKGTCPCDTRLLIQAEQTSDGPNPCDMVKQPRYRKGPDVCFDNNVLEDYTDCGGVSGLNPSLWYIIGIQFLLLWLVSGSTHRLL
Chain of human Cav2.2 (P54284 whole entry partner): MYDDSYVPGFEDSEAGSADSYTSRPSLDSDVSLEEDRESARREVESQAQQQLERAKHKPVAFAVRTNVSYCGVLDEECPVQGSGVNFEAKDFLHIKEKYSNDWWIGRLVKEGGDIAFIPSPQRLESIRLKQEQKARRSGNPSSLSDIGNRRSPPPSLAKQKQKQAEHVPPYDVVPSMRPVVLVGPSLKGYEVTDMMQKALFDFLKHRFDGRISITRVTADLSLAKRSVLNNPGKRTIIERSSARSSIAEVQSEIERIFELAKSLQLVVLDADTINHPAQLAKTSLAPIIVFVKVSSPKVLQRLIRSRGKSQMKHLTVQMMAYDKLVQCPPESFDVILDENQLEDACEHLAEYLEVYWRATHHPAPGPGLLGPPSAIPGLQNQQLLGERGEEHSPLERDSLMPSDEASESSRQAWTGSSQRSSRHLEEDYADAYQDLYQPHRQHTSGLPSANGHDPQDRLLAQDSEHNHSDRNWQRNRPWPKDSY

| IC50 [nM] | SMILES |
| --- | --- |
| 1010 | O=C(CN1CCCC(c2ccccc2)(c2ccccc2)C1=O)NC1CCN(Cc2cccc(C(F)(F)F)c2)CC1 [Example 200, 2-(2-oxo-3,3-diphenylpiperidin-1-yl)-N-{1-[3-(trifluoromethyl)benzyl]piperidin-4-yl}acetamide] |
| 3730 | O=C(CN1CCCC(c2ccccc2)(c2ccccc2)C1=O)N1CCC(Oc2cccc(Cl)c2)CC1 [Example 159, 1-{2-[4-(3-chlorophenoxy)piperidin-1-yl]-2-oxoethyl}-3,3-diphenylpiperidin-2-one] |
| 4450 | O=C(CN1CCC(c2ccc(F)cc2)(c2ccc(F)cc2)C1=O)N1CCc2ccccc2C1 [Example 258, 1-[2-(3,4-dihydroisoquinolin-2(1H)-yl)-2-oxoethyl]-3,3-bis(4-fluorophenyl)pyrrolidin-2-one] |
| 5900 | O=C(CN1CCCC(c2ccccc2)C1=O)N1CCN(Cc2cccc(C(F)(F)F)c2)CC1 (stereo not shown) [Example 93, 1-(2-oxo-2-{4-[3-(trifluoromethyl)benzyl]piperazin-1-yl}ethyl)-3-phenylpiperidin-2-one] |
| 1540 | O=C(CN1CCC(c2ccccc2)(c2ccccc2)C1=O)N1CCC(NCC(c2ccccc2)c2ccccc2)CC1 [Example 52, 1-(2-{4-[(2,2-diphenylethyl)amino]piperidin-1-yl}-2-oxoethyl)-3,3-diphenylpyrrolidin-2-one] |
| 2650 | O=C(CN1CCC(c2ccccc2)(c2ccccc2)C1=O)N1CCNC(Cc2ccccc2)C1 (stereo not shown) [Example 18, 1-[2-(3-benzylpiperazin-1-yl)-2-oxoethyl]-3,3-diphenylpyrrolidin-2-one] |
| 1380 | O=C(CN1CCCC(c2ccccc2)(c2ccccc2)C1=O)N1CCN(Cc2ccc(C(F)(F)F)cc2)CC1 [Example 80, 1-(2-oxo-2-{4-[4-(trifluoromethyl)benzyl]piperazin-1-yl}ethyl)-3,3-diphenylpiperidin-2-one] |
| 900 | CC(CNC(=O)CN1CCC(c2ccccc2)(c2ccccc2)C1=O)(c1ccccc1)c1ccccc1 [Example 16, N-(2,2-diphenylpropyl)-2-(2-oxo-3,3-diphenylpyrrolidin-1-yl)acetamide] |
| 1040 | CC1(C)C(=O)N(CCN2CCC(c3ccccc3)(c3ccccc3)C2=O)CCN1Cc1cccs1 [Example 65, 3,3-dimethyl-1-[2-(2-oxo-3,3-diphenylpyrrolidin-1-yl)ethyl]-4-(thien-2-ylmethyl)piperazin-2-one] |
| 11600 | COc1ccc(CCN(C)C(=O)CN2CCCC(c3ccccc3)(c3ccccc3)C2=O)cc1OC [Example 143, N-[2-(3,4-dimethoxyphenyl)ethyl]-N-methyl-2-(2-oxo-3,3-diphenylpiperidin-1-yl)acetamide] |
| 770 | CC(c1cccc(C(F)(F)F)c1)N1CCN(C(=O)CN2CCC(c3ccccc3)(c3ccccc3)C2=O)CC1 (stereo not shown) [Example 44, 1-[2-oxo-2-(4-{1-[3-(trifluoromethyl)phenyl]ethyl}piperazin-1-yl)ethyl]-3,3-diphenylpyrrolidin-2-one] |
| 3210 | O=C(CN1CCC(c2ccc(F)cc2Cl)C1=O)N1Cc2ccc(C(F)(F)F)cc2C1 (stereo not shown) [Example 269, 3-(2-chloro-4-fluorophenyl)-1-{2-oxo-2-[5-(trifluoromethyl)-1,3-dihydro-2H-isoindol-2-yl]ethyl}pyrrolidin-2-one] |
| 2360 | O=C(CN1CCCC(c2ccccc2)(c2ccccc2)C1=O)N1CCN(C(c2ccc(F)cc2)c2ccc(F)cc2)CC1 [Example 82, 1-(2-{4-[bis(4-fluorophenyl)methyl]piperazin-1-yl}-2-oxoethyl)-3,3-diphenylpiperidin-2-one] |
| 1230 | O=C1N(CCCN2CCN(c3cccc(C(F)(F)F)c3)CC2)CCCC1(c1ccc(F)cc1)c1ccc(F)cc1 [Example 142, 3,3-bis(4-fluorophenyl)-1-(3-{4-[3-(trifluoromethyl)phenyl]piperazin-1-yl}propyl)piperidin-2-one] |
| 6050 | O=C(CN1CCCC(c2ccccc2)(c2ccccc2)C1=O)N1CCOC(c2ccccc2)(c2ccccc2)C1 [Example 69, 1-[2-(2,2-diphenylmorpholin-4-yl)-2-oxoethyl]-3,3-diphenylpiperidin-2-one] |
| 4370 | O=C(CN1CCCC(c2ccccc2)(c2ccccc2)C1=O)N1CCC(c2cccc(C(F)(F)F)c2)CC1 [Example 243, 1-(2-oxo-2-{4-[3-(trifluoromethyl)phenyl]piperidin-1-yl}ethyl)-3,3-diphenylpiperidin-2-one] |
| 3070 | O=C(CN1CCCC(c2ccccc2)(c2ccccc2)C1=O)N1CC(c2ccc(C(F)(F)F)cc2)C1 [Example 240, 1-(2-oxo-2-{3-[4-(trifluoromethyl)phenyl]azetidin-1-yl}ethyl)-3,3-diphenylpiperidin-2-one] |
| 5980 | O=C1N(Cc2nc(-c3ccc(OC(F)(F)F)cc3)no2)CCCC1(c1ccccc1)c1ccccc1 [Example 199, 3,3-diphenyl-1-({3-[4-(trifluoromethoxy)phenyl]-1,2,4-oxadiazol-5-yl}methyl)piperidin-2-one] |
| > 30000 | O=C(CN1CCC[C@H](c2ccccc2)C1=O)N1Cc2ccc(F)cc2C1 (single isomer, unassigned) [Example 188] |

Second part, the compound before the results:

| SMILES | IC50 [nM] |
| --- | --- |
| COc1ccc(C2(c3ccc(OC)cc3)CCCN(CCCN(C)CCc3cccc(OC)c3)C2=O)cc1 [Example 125, 3,3-bis(4-methoxyphenyl)-1-{3-[[2-(3-methoxyphenyl)ethyl](methyl)amino]propyl}piperidin-2-one] | 1680 |
| O=C(CN1CCC(c2ccccc2)(c2ccccc2)C1=O)N1CCC(c2ccccc2)C1 (stereo not shown) [Example 21, 1-[2-oxo-2-(3-phenylpyrrolidin-1-yl)ethyl]-3,3-diphenylpyrrolidin-2-one] | 1830 |
| O=C(CN1CCC(c2ccccc2)(c2ccccc2)C1=O)Nc1ccc(C(F)(F)F)nc1 [Example 248, 2-(2-oxo-3,3-diphenylpyrrolidin-1-yl)-N-[6-(trifluoromethyl)pyridin-3-yl]acetamide] | 8840 |
| O=C1N(Cc2nc(-c3cncc(C(F)(F)F)c3)no2)CCC1(c1ccccc1)c1ccccc1 [Example 219, 3,3-diphenyl-1-({3-[5-(trifluoromethyl)pyridin-3-yl]-1,2,4-oxadiazol-5-yl}methyl)pyrrolidin-2-one] | 2930 |
| O=C(CN1CCNC(c2ccccc2)C1=O)N1CCN(C(c2ccc(F)cc2)c2ccc(F)cc2)CC1 (stereo not shown) [Example 103, 1-(2-{4-[bis(4-fluorophenyl)methyl]piperazin-1-yl}-2-oxoethyl)-3-phenylpiperazin-2-one] | 10600 |
| COc1ccc(C2(c3ccc(OC)cc3)CCCN(CCN3CCN(Cc4cc(OC)cc(OC)c4)CC3)C2=O)cc1 [Example 132, 1-{2-[4-(3,5-dimethoxybenzyl)piperazin-1-yl]ethyl}-3,3-bis(4-methoxyphenyl)piperidin-2-one] | 2300 |
| O=C(CN1CCC(c2ccccc2)(c2ccccc2)C1=O)N1CCC(C(O)(c2ccccc2)c2ccccc2)CC1 [Example 34, 1-(2-{4-[hydroxy(diphenyl)methyl]piperidin-1-yl}-2-oxoethyl)-3,3-diphenylpyrrolidin-2-one] | 960 |
| O=C(CN1CCC(c2ccc(F)cc2)(c2ccc(F)cc2)C1=O)N1CCC(c2ccc(F)cc2)(c2ccc(F)cc2)C1 [Example 204, 1-{2-[3,3-bis(4-fluorophenyl)pyrrolidin-1-yl]-2-oxoethyl}-3,3-bis(4-fluorophenyl)pyrrolidin-2-one] | 3040 |
| O=C1N(CCN2CCN(c3ncccn3)CC2)CCCC1(c1ccc(F)cc1)c1ccc(F)cc1 [Example 136, 3,3-bis(4-fluorophenyl)-1-[2-(4-pyrimidin-2-ylpiperazin-1-yl)ethyl]piperidin-2-one] | 3320 |
| CN(CCc1ccccc1)CCN1CCCC(c2ccc(F)cc2)(c2ccc(F)cc2)C1=O [Example 122, 3,3-bis(4-fluorophenyl)-1-{2-[methyl(2-phenylethyl)amino]ethyl}piperidin-2-one] | 2350 |
| O=C(CN1CCC(c2ccccc2)(c2ccccc2)C1=O)N1CCN(c2ccc(Cl)cn2)CC1 [Example 53, 1-{2-[4-(5-chloropyridin-2-yl)piperazin-1-yl]-2-oxoethyl}-3,3-diphenylpyrrolidin-2-one] | 4020 |
| CC1(NC(=O)CN2CCCC(c3ccccc3)(c3ccccc3)C2=O)CCN(Cc2ccccc2)C1 (stereo not shown) [Example 89, N-(1-benzyl-3-methylpyrrolidin-3-yl)-2-(2-oxo-3,3-diphenylpiperidin-1-yl)acetamide] | 3000 |
| O=C(CN1CCC(c2ccc(F)cc2)(c2ccc(F)cc2)C1=O)Nc1ccc(C(F)(F)F)cn1 [Example 217, 2-[3,3-bis(4-fluorophenyl)-2-oxopyrrolidin-1-yl]-N-[5-(trifluoromethyl)pyridin-2-yl]acetamide] | 2620 |
| O=C1CN(C(c2ccccc2)c2ccccc2)CCN1CCN1CCC(c2ccccc2)(c2ccccc2)C1=O [Example 64, 4-benzhydryl-1-[2-(2-oxo-3,3-diphenylpyrrolidin-1-yl)ethyl]piperazin-2-one] | 2090 |
| O=C(CN1CCCC(c2ccccc2)C1=O)N1Cc2ccc(F)cc2C1 (stereo not shown) [Example 95, 1-[2-(5-fluoro-1,3-dihydro-2H-isoindol-2-yl)-2-oxoethyl]-3-phenylpiperidin-2-one] | 34800 |
| O=C(CN1CCCC(c2ccccc2)(c2ccccc2)C1=O)N1CCC(C(O)(c2ccccc2)c2ccccc2)CC1 [Example 78, 1-(2-{4-[hydroxy(diphenyl)methyl]piperidin-1-yl}-2-oxoethyl)-3,3-diphenylpiperidin-2-one] | 1740 |
| O=C(CN1CCC(c2ccccc2)(c2ccccc2)C1=O)N1CCN(C(c2ccccc2)c2ccc(F)cc2)CC1 (stereo not shown) [Example 46, 1-(2-{4-[(4-fluorophenyl)(phenyl)methyl]piperazin-1-yl}-2-oxoethyl)-3,3-diphenylpyrrolidin-2-one] | 450 |
| O=C1CN(CCN2CCC(c3ccccc3)(c3ccccc3)C2=O)CCN1C(c1ccccc1)c1ccccc1 [Example 66, 1-benzhydryl-4-[2-(2-oxo-3,3-diphenylpyrrolidin-1-yl)ethyl]piperazin-2-one] | 1830 |
